Earlier results, collected in patent publication US20160346319A1, “NO/HE GAS MIXTURE WITH BA[…]” (AIR LIQUIDE SANTE (INTERNATIONAL), priority 2014, published 2016).

Test system: bacteria
Conditions: high dose, certain publications

For `[N]=O` [NO, nitric oxide], the “dose of NO showing an antibacterial effect” value is listed as “at least 150 ppm by volume”.
